According to patent US20140235536A1, “INJECTABLE SOLUTION AT PH 7 COMPRISING AT LEAST ONE BASAL INSULIN THE ISOELECTRIC POINT OF WHICH IS COMPRISED IN 5.8 AND 8.5 AND AN ANIONIC COMPOUND BEARING CARBOXYLATE CHARGES AND HYDROPHOBIC RADICALS” (ADOCIA, priority 2013, published 2014):
Read-outs that look alike come from different tables or passages of the source.

Assays:
insulin glargine [1] = molecular target: T1, insulin glargine (Homo sapiens, UniProt P01308, INS54RR/N110G); test: Precipitation of hydrophobized anionic molecule/insulin glargine/prandial insulin compositions in PBS/BSA (examples B15-B17); assay type: physicochemical
T1 construct: substitution of asparagine residue A21 with a glycine residue; elongation of the C-terminal of the B chain of human insulin with two arginine residues; purchased SANOFI-AVENTIS (Lantus®); ELI LILLY (Humalog®)
Protocol: The PBS/BSA mixture simulates the composition of the subcutaneous medium.
(§1) Centrifugation at 4000 rpm is carried out in order to separate the precipitate from the supernatant. The insulin glargine is then assayed in the supernatant by RP-HPLC.
This composition is added to 2 ml of PBS containing 20 mg/ml of BSA. The PBS/BSA mixture simulates the composition of the subcutaneous medium. […] Centrifugation at 4000 rpm is carried out in order to separate the precipitate from the supernatant. The insulin glargine is then assayed in the supernatant by RP-HPLC.

[2] = molecular target: insulin glargine and prandial insulin (Homo sapiens, UniProt P01308, INS54RR/N110G)
Protocol: 0.25 ml of the insulin glulisine solution of example B3 is added to 0.75 ml of the solution of hydrophobized anionic molecule AA1/insulin glargine prepared according to the protocol described in example B6(a), so as to form 1 ml of a composition at pH 7. […] This clear solution is filtered through a 0.22 μm filter and then placed at +4° C.
0.25 ml of the insulin lispro solution of example B2 is added to 0.75 ml of the solution of hydrophobized anionic molecule AA1/insulin glargine prepared according to the protocol described in example B6(a), so as to form 1 ml of a composition at pH 7. […] This clear solution is filtered through a 0.22 μm filter and then placed at +4° C.
0.25 ml of the insulin aspart solution of example B1 is added to 0.75 ml of the solution of hydrophobized anionic molecule AA1/insulin glargine prepared in example B6(a), so as to form 1 ml of a composition at pH 7. […] This clear solution is filtered through a 0.22 μm filter and then placed at +4° C.
0.4 ml of the insulin lispro solution of example B2 is added to 0.6 ml of the solution of hydrophobized anionic molecule AA1/insulin glargine prepared in example 86(a), so as to form 1 ml of a composition at pH 7. […] This clear solution is filtered through a 0.22 μm filter and then placed at +4° C.
0.6 ml of the insulin lispro solution of example B2 is added to 0.4 ml of the solution of hydrophobized anionic molecule AA1/insulin glargine prepared in example B6(a), so as to form 1 ml of a composition at pH 7. […] This clear solution is filtered through a 0.22 μm filter and then placed at +4° C.
Compositions are prepared by mixing 0.75 ml of the hydrophobized anionic molecule AA1/insulin glargine solution prepared according to the protocol of example B6(a) with 0.25 ml of a prandial insulin, so as to form 1 ml of hydrophobized anionic molecule AA1/insulin glargine/prandial insulin composition (containing 7.5 mg/ml of hydrophobized anionic molecule AA1, 75 IU/ml of insulin glargine and 25 IU/ml of prandial insulin).

insulin glargine [3] = molecular target: T1, insulin glargine; test: Precipitation of hydrophobized anionic molecule/insulin glargine composition in PBS/BSA mixture simulating the subcutaneous medium (examples B13, B14); assay type: physicochemical; settings: 1 ml composition (10 mg/ml molecule, 100 IU/ml insulin glargine) added to 2 ml PBS containing 20 mg/ml BSA
Protocol: 1 ml of the insulin glargine solution of example B4 is added to 2 ml of a solution of PBS (phosphate buffered saline) containing 20 mg/ml of BSA (bovine serum albumin). The PBS/BSA mixture simulates the composition of the subcutaneous medium.
Centrifugation at 4000 rpm is carried out in order to separate the precipitate from the supernatant. The insulin glargine is then assayed in the supernatant by reverse-phase liquid chromatography (RP-HPLC).
1 ml of hydrophobized anionic molecule AA1/insulin glargine solution prepared in example B6(a) is added to 2 ml of a solution of PBS containing 20 mg/ml of BSA. The PBS/BSA mixture simulates the composition of the subcutaneous medium.
as §1
Solubilization and precipitation tests identical to those described in examples B6 and B14 were carried out with other hydrophobized anionic molecules at the same concentration of 10 mg/ml of hydrophobized anionic molecule for 100 IU/ml of insulin glargine solution.

insulin glargine [4] = molecular target: T1, insulin glargine; settings: alone versus with the cyclodextrin, cited from earlier work
[5] = background statement on marketed insulins; cited from earlier work
[6] = 7.5 mg/ml AA1, 75 IU/ml insulin glargine, 25 IU/ml prandial insulin, added to 2 ml PBS containing 20 mg/ml BSA
[7] = insulin glargine/insulin lispro 75/25 composition at pH 7, 1 ml added to 2 ml PBS containing 20 mg/ml BSA

T1 sequence (P01308 90-110 N110G limits assumed): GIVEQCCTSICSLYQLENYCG
T1 sequence (P01308 25-56 limits assumed, stated change not applied): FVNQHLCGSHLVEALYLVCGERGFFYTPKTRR

Human insulin (ActRapid ®): commercial 100 IU/ml solution of human insulin (NOVO NORDISK) [reference compound]
Insulin glargine precipitation (insulin glargine [1]; [6]): Yes
Solubilization of insulin glargine/prandial insulin 75/25 [2]: Yes

Insulin aspart (NovoLog ®): commercial 100 IU/ml solution of insulin aspart, fast-acting insulin analog (NOVO NORDISK) [reference compound]
Insulin glargine precipitation (insulin glargine [1]; [6]): Yes
Solubilization of insulin glargine/prandial insulin 75/25 [2]: Yes

Insulin glulisine (Apidra ®): commercial 100 IU/ml solution of insulin glulisine, fast-acting insulin analog (SANOFI-AVENTIS) [reference compound]
Insulin glargine precipitation (insulin glargine [1]; [6]): Yes

Insulin lispro (Humalog ®): commercial 100 IU/ml solution of insulin lispro, fast-acting insulin analog (ELI LILLY) [reference compound]
Insulin glargine precipitation (insulin glargine [1]; [6]): Yes
Solubilization of insulin glargine/prandial insulin 75/25 [2]: Yes

Sodium Maltooctaosemethylcarboxylate Functionalized with Cholesteryl Leucinate [AA5]
Insulin glargine precipitation (insulin glargine [3]): Yes
Insulin glargine precipitation (insulin glargine [1]; [7]): Yes

Sodium Maltopentaosemethylcarboxylate Functionalized with Cholesteryl Leucinate [AA4]
Insulin glargine precipitation (insulin glargine [3]): Yes
Insulin glargine precipitation (insulin glargine [1]; [7]): Yes

Sodium Maltotriosemethylcarboxylate Functionalized with 3,7-dimethyl-octanoyl Phenylalaninate [AA8]
Insulin glargine precipitation (insulin glargine [3]): Yes
Insulin glargine precipitation (insulin glargine [1]; [7]): Yes

Sodium Maltotriosemethylcarboxylate Functionalized with (±)-α-tocopheryl Leucinate [AA9]
Insulin glargine precipitation (insulin glargine [3]): Yes
Insulin glargine precipitation (insulin glargine [1]; [7]): Yes

Sodium Maltotriosemethylcarboxylate Functionalized with Cholesteryl 2-aminoethylcarbamate [AA7]
Insulin glargine precipitation (insulin glargine [3]): Yes
Insulin glargine precipitation (insulin glargine [1]; [7]): Yes

Sodium Maltotriosemethylcarboxylate Functionalized with Cholesteryl Leucinate [AA1]
Insulin glargine precipitation (insulin glargine [3]): Yes

Sodium Maltotriosemethylcarboxylate Functionalized with Cholesteryl Leucinate [AA3]
Insulin glargine precipitation (insulin glargine [1]; [7]): Yes

Sodium Maltotriosemethylcarboxylate Functionalized with Dilauryl Aspartate [AA6]
Insulin glargine precipitation (insulin glargine [3]): Yes
Insulin glargine precipitation (insulin glargine [1]; [7]): Yes

insulin glargine
solubility of insulin glargine (insulin glargine [4]; pH 7.4, phosphate buffer): 5 µM
solubility of insulin glargine (insulin glargine [4]; pH 9.5): 750 µM
duration of action / hypoglycemic effect [5]: 24 h

sulfobutyl ether-β-cyclodextrin [SVE4-β-CYD]
solubility of insulin glargine (insulin glargine [4]; pH 7.4, phosphate buffer): 8 µM
solubility of insulin glargine (insulin glargine [4]; pH 9.5): 1250 µM
